In brackets after ≈: the same amount, converted by molar mass. Where two headings read alike, the source gives them in different places.
Columns and labels:
Assay in all cases: Determination of Minimum Inhibitory Concentrations (MIC), agar dilution
Format in all cases: cell-based
[1] = system: E. cloacae 1321E; conditions: Enterobacter cloacae
Protocol: (§1) Serial two-fold dilutions of freshly prepared test solutions were made into Oxoid No. 1 Nutrient agar with or without added enrichment and poured into petri dishes. Plates were inoculated with a multipoint inoculator with inoculum containing approximately 10^5 colony forming units of the organisms shown in the following Table, all of which organisms are clinical isolates. The MIC, quoted in the Table as µg/ml, was read after 18 hours incubation at 37°C as the lowest concentration which inhibited growth.

[2] = system: Micrococcus Sp 1810E; conditions: SP1810E
Protocol: as §1

[3] = system: E. coli 851E; conditions: Escherichia coli
Protocol: as §1

[4] = system: H. influenzae 1184E; conditions: Haemophilus influenzae
Protocol: as §1

[5] = system: S. marcescens 1324E; conditions: Serratia marcescens
Protocol: as §1

[6] = system: K. aerogenes 1522E; conditions: Klebsiella aerogenes
Protocol: as §1

[7] = system: Staph. aureus 853E; conditions: Staphylococcus aureus
Protocol: as §1

[8] = system: E. cloacae 1051E; conditions: Enterobacter cloacae
Protocol: as §1

[9] = E. cloacae 1321E, clinical isolate, Oxoid No. 1 Nutrient agar, approx. 10^5 colony forming units, 18 hours at 37°C, read-out: MIC
[10] = Micrococcus Sp 1810E, clinical isolate, Oxoid No. 1 Nutrient agar, approx. 10^5 colony forming units, 18 hours at 37°C, read-out: MIC
[11] = E. coli 851E, clinical isolate, Oxoid No. 1 Nutrient agar, approx. 10^5 colony forming units, 18 hours at 37°C, read-out: MIC
[12] = H. influenzae 1184E, clinical isolate, Oxoid No. 1 Nutrient agar, approx. 10^5 colony forming units, 18 hours at 37°C, read-out: MIC
[13] = S. marcescens 1324E, clinical isolate, Oxoid No. 1 Nutrient agar, approx. 10^5 colony forming units, 18 hours at 37°C, read-out: MIC
[14] = K. aerogenes 1522E, clinical isolate, Oxoid No. 1 Nutrient agar, approx. 10^5 colony forming units, 18 hours at 37°C, read-out: MIC
[15] = Staph. aureus 853E, clinical isolate, Oxoid No. 1 Nutrient agar, approx. 10^5 colony forming units, 18 hours at 37°C, read-out: MIC
[16] = E. cloacae 1051E, clinical isolate, Oxoid No. 1 Nutrient agar, approx. 10^5 colony forming units, 18 hours at 37°C, read-out: MIC

Row | SMILES | MIC [1, 9] | MIC [2, 10] | MIC [3, 11] | MIC [4, 12] | MIC [5, 13] | MIC [6, 14] | MIC [7, 15] | MIC [8, 16] | MIC ([1]; 1321E, 18 h) | MIC ([2]; Micrococcus, 18 h) | MIC ([3]; 851E, 18 h) | MIC ([4]; 1184E, 18 h) | MIC ([5]; 1324E, 18 h) | MIC ([6]; 1522E, 18 h) | MIC ([7]; 853E, 18 h) | MIC ([8]; 1051E, 18 h)
1 | CNC(=O)NCCC1=C(C(=O)O)N2C(=O)CC2S1 (racemic) [Example 10, Potassium (5RS)-2-(2-N-methylureidoethyl)pen-2-em-3-carboxylate] | 8 µg/mL | 1 µg/mL | 8 µg/mL | 8 µg/mL | 8 µg/mL | 8 µg/mL | 62 µg/mL | 16 µg/mL |  |  |  |  |  |  |  | 
2 | O=CNCCC1=C(C(=O)O)N2C(=O)CC2S1 (racemic) [Example 4, (5RS)-2-(2-Formamidoethyl)pen-2-em-3-carboxylic acid] | 1 µg/mL (≈ 4.13 µM) | 0.1 µg/mL (≈ 0.413 µM) | 1 µg/mL (≈ 4.13 µM) | 2 µg/mL (≈ 8.26 µM) | 2 µg/mL (≈ 8.26 µM) | 2 µg/mL (≈ 8.26 µM) | 2 µg/mL (≈ 8.26 µM) | 1 µg/mL (≈ 4.13 µM) |  |  |  |  |  |  |  | 
3 | O=C(NCCC1=C(C(=O)O)N2C(=O)CC2S1)Nc1ccccc1 (racemic) [Example 11, Potassium (5RS)-2-(2-N-phenylureidoethyl)pen-2-em-3-carboxylate] | 8 µg/mL | 0.2 µg/mL | 2 µg/mL | 16 µg/mL | 8 µg/mL | 2 µg/mL | 0.2 µg/mL | 16 µg/mL |  |  |  |  |  |  |  | 
4 | CC(=O)NCCC1=C(C(=O)[O-])N2C(=O)CC2S1.[K+] (racemic) [Example 7, Potassium (5RS)-2-(2-acetamidoethyl)pen-2-em-3-carboxylate] |  |  |  |  |  |  |  |  | 4 µg/mL | 2 µg/mL | 8 µg/mL | 16 µg/mL | 31 µg/mL | 8 µg/mL | 2 µg/mL | 16 µg/mL

— patent EP0010358A1, “Beta-lactam compounds, processes for their preparation, compositions containing them, intermediates of use in their preparation and methods for the production thereof” (GLAXO GROUP LIMITED, priority 1978, dated 1980)
